The values below come from article PMC10865806, “Structural insights into the molecular mechanism of high-level ceftazidime–avibactam resistance conferred by CMY-185” (mBio, 2024).

≈ marks a conversion by molar mass, not a printed value.

The target of assay [1] is T1, CMY-2 variant Q120K_N346Y (Klebsiella pneumoniae, UniProt Q48434, N366Y/Q140K).
T1 construct: all CMY-2 variant genes encoding the mature enzyme without a signal peptide were cloned into the protein expression plasmid vector pET-30b; made in house; host or cells: E. coli BL21 (DE3), pET-30b
Briefly: Competitive inhibition of cephalothin hydrolysis and avibactam inhibition kinetics. The format is biochemical, Escherichia coli. The settings on record: Q120K_N346Y; reporter substrate cephalothin 100 µM, Dixon plot; read-out: Ki app. The source says: (§1) We tested the enzymes, CMY-2, two single mutants V211S (CMY-42) and N346Y, three double mutants A114E_N346Y, Q120K_N346Y, and V211S_N346Y, and the quadruplet mutant CMY-185 to elucidate the impact on the kinetic properties resulting from the four amino acid substitutions present in CMY-185 compared with CMY-2 ([8]). The steady-state kinetic parameters kcat and Km (or Ki app) for nitrocefin, cephalothin, ceftazidime, and cefiderocol and the inhibition parameters Ki app, k2/K, k−2, and koff for avibactam are summarized in Table 1. During the hydrolysis of nitrocefin, we observed the reduction of the initial velocity at concentrations above 50 µM particularly for the CMY-2 variants harboring the N346Y substitution. As this could have represented substrate inhibition, we then determined the kinetics parameters for nitrocefin using the Haldane equation ([16]). […] In addition, during the hydrolysis of cefiderocol by CMY-185, the initial velocities at a concentration range of 3.7–59.4 µM were similar.
(§2) The steady-state kinetics were carried out on a UV-Visible spectrometer (UV-1280, Shimadzu, Japan) in PBS pH 7.2 at 25°C with a constant amount of enzyme and varying concentrations of the substrates. We tested nitrocefin, cephalothin, ceftazidime, and cefiderocol as the substrates and avibactam as the inhibitor. The steady-state kinetics parameters Km and kcat were determined with the Michaelis-Menten equation. For poorly hydrolyzed substrates, the Km value was assumed to be the competitive inhibition constant (Ki app) value according to previous studies ([17], [19]). Inhibition parameter values of Ki app, k2/K, k−2, and koff for avibactam were determined using a method as described previously ([33]). Cephalothin was used as the reporter substrate for competitive inhibition experiments, and its concentration was fixed at 100 µM. The enzyme concentration was 1–10 nM. Inverse steady-state initial velocities were plotted against the concentration of the competitive inhibitor agents, such as ceftazidime, cefiderocol, and avibactam. The data were analyzed by linear regression analysis of the Dixon plot, and Ki app (observed) was determined by dividing the y-intercept value by the slope of the line. It was then corrected to account for the affinity of cephalothin for each enzyme using the Equation (1):
(§3) (1) Ki app=Ki app (observed)/{1+[S]/Km (cephalothin)}
(§4) where [S] represents the concentration of the reporter substrate cephalothin, and Km (cephalothin) is the Km value of cephalothin for each enzyme.
(§5) The koff value was determined using a jump dilution assay. The enzyme and avibactam were mixed and preincubated at 25°C for 5 min. The concentration of avibactam depended on the enzyme and concentrations 10-fold higher from each Ki app (observed) value were adopted, which were determined based on the corrected competitive inhibition constants Ki app. Preincubated enzyme-avibactam mixture was then diluted 2,000-fold in the 100 µM cephalothin solution, and the hydrolysis of cephalothin was measured. Three independent measurements were performed for each enzyme and substrate or inhibitor combination. Curve fittings using linear or non-linear regression were performed with R 4.1.3 (R Core Team, 2022).

In the next assay the target is T2, CMY-185 (Klebsiella pneumoniae, UniProt Q48434, A134E/N366Y/Q140K/V231S).
T2 construct: all CMY-2 variant genes encoding the mature enzyme without a signal peptide were cloned into the protein expression plasmid vector pET-30b; made in house; host or cells: E. coli BL21 (DE3), pET-30b
The assay is described as above. The format is biochemical, Escherichia coli. The settings on record: CMY-185; reporter substrate cephalothin 100 µM, Dixon plot; read-out: Ki app.
Source text: as §1, §2, §3, §4, §5

A further assay has as its target T3, CMY-2 (Klebsiella pneumoniae, UniProt Q48434).
T3 construct: all CMY-2 variant genes encoding the mature enzyme without a signal peptide were cloned into the protein expression plasmid vector pET-30b; made in house; host or cells: E. coli BL21 (DE3), pET-30b
The description is as above. The format is biochemical, Escherichia coli.
Source text: as §1, §2, §3, §4, §5

The next assay deals with T4, CMY-2 variant N346Y (Klebsiella pneumoniae, UniProt Q48434, N366Y).
T4 construct: all CMY-2 variant genes encoding the mature enzyme without a signal peptide were cloned into the protein expression plasmid vector pET-30b; made in house; host or cells: E. coli BL21 (DE3), pET-30b
The description is as above. The format is biochemical, Escherichia coli. The settings on record: N346Y; reporter substrate cephalothin 100 µM, Dixon plot; read-out: Ki app.
Source text: as §1, §2, §3, §4, §5

The target of assay [2] is T5, CMY-2 variant A114E_N346Y (Klebsiella pneumoniae, UniProt Q48434, A134E/N366Y).
T5 construct: all CMY-2 variant genes encoding the mature enzyme without a signal peptide were cloned into the protein expression plasmid vector pET-30b; made in house; host or cells: E. coli BL21 (DE3), pET-30b
The description is as above. The format is biochemical, Escherichia coli. The settings on record: reporter substrate cephalothin 100 µM, Dixon plot, read-out: Ki app.
Source text: as §1, §2, §3, §4, §5

The subject of the next assay is other β-lactamases. Details: method as in PMID 30188999, PMID 27736756. The conditions noted are these: cited from earlier work.
In the next assay the test system is CMY-178. The conditions noted are these: cited from earlier work.

In general, Km refers to the concentration of substrate that gives half-maximal velocity. What is called MIC is the lowest concentration that inhibits growth of the organism. As for `CC(C)(O/N=C(\C(=O)N[C@@H]1C(=O)N2C(C(=O)[O-])=C(C[N+]3(CCNC(=O)c4ccc(O)c(O)c4Cl)CCCC3)CS[C@H]12)c1csc(N)n1)C(=O)O` [Cefiderocol, cefiderocol], the Ki in assay [1] is 400 nM; on CMY-185, 200 nM; at CMY-2 (reporter substrate cephalothin 100 µM, Dixon plot, read-out: Ki app), 8000 ± 1300 nM; at CMY-2 variant N346Y it was 700 nM; in assay [2] it was 400 nM. On CMY-2 (cefiderocol compared with ceftazidime), the “fold higher Ki app” value is listed as 10 fold. For the same compound, the Km with other β-lactamases is > 190 µM. The minimal inhibitory concentration (MIC) in the assay with CMY-178 was 1 µg/mL (≈ 1.33 µM).
